Test results taken from patent publication US12263248B2, “Compounds and compositions for intracellular delivery of therapeutic agents” (ModernaTX, Inc., priority 2018, dated 2025).

Assays:
[1] = Apparent (surface) pKa of the LNP formulation (TNS assay); assay type: physicochemical; conditions: for App. pKa: Table 3F
In short: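 LNP (0.04 mg/mL mRNA) mixed with TNS reagent in 21 buffers spanning about pH 3-12, in triplicate; fluorescence plotted against pH as sigmoidal curve. Apparent pKa taken as […] curve inflection point; validated in 1× PBS and 20 mM Tris w/8% sucrose.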

IL-6, IP-10 = experiment: Cytokine induction in mice upon intravenous administration; assay type: in vivo; parameters: Cytokine induction IL-6 / Cytokine induction IP-10: unit not given here; conditions: 0.5 mpk, 6 hours; for Cytokine induction IL-6 / Cytokine induction IP-10: intravenous; for IL-6 induction / IP-10 induction: i.v., in words
In short: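 Mice dosed intravenously with nanoparticle compositions at 0.5 mpk; serum cytokine concentrations (IL-6, IP-10) measured at 6 hours. MC3 formulation and PBS controls run alongside.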

[2] = Encapsulation efficiency of RNA (QUANT-IT RIBOGREEN RNA assay); assay type: physicochemical; conditions: for % Encapsulation: lipid nanoparticle, ±SD within one assay run (Table 37)
In short: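 RiboGreen fluorescence (ex ~480, em ~520 nm) compared between intact samples and Triton X-100-lysed samples after 15 min at 37 °C in TE buffer, pH 7.5. Percent free RNA is the blank-corrected intact/disrupted ratio.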

luciferase (Luc) mRNA = experiment: Luc expression (total flux) after intramuscular administration; assay type: in vivo, mice; conditions: for Total flux, 0.001 mpk Dose / Total flux, 0.01 mpk Dose: Luc mRNA and H10 mRNA; for Novel lipid/MC3 expression ratio, 6 hr. time point, i.m. Luc: relative to MC3 formulation
In short: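 Mice given a single intramuscular dose of lipid nanoparticle formulations carrying modified Luc mRNA, alone or with H10 mRNA, at 0.001 or 0.01 mpk total. Luciferase expression recorded as total flux.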

[3] = Table 1E, compositions for subcutaneous administration
[4] = 6 hours after intramuscular administration
[5] = 6 hours after intramuscular administration, 0.01 mpk
[6] = Table 1B, formulated with hEPO mRNA
[7] = Table 1C, compositions for subcutaneous administration
[8] = Table 1D, for subcutaneous administration, # formulated with hEPO mRNA
[9] = lipid nanoparticle, ±SD within one assay run (Table 37)
[10] = nanoparticle composition with hEPO mRNA (Table 30)
[11] = lipid:DSPC:Chol:PEG-DMG (50:10:38.5:1.5), hEPO mRNA

Row | SMILES | pKa ([1]; Table 1A) | Cytokine induction IL-6 (IL-6, IP-10) | Cytokine induction IP-10 (IL-6, IP-10) | EE (%) ([2]; Table 1A) | Total flux, 0.001 mpk Dose (luciferase (Luc) mRNA; [4]) [p/s] | Total flux, 0.01 mpk Dose (luciferase (Luc) mRNA; [5]) [p/s] | pKa [1, 9] | % Encapsulation [2] [%] | also measured
1 | CCCCCCCCCOC(=O)CCCCCCCN(CCO)CCCCCCCCCC(=O)OC(CCCCCCCC)CCCCCCCC [Compound 23, Heptadecan-9-yl 10-((2-hydroxyethyl)(8-(nonyloxy)-8-oxooctyl)amino) decanoate] | 6.84 | 94.00 | 1015.95 | 92.68 | 8.27E+06 | 2.20E+06 | – | – | App. pKa [1]: 6.88; % EE [2, 3]: 98%
2 | CCCCCCCCCOC(=O)CCCCCCCN(CCO)CCCCCCCOC(=O)C(CCCCCCCC)CCCCCCCC [Compound 30, 7-((2-Hydroxyethyl)(8-(nonyloxy)-8-oxooctyl)amino)heptyl 2-octyldecanoate] | 6.75 | 152.51 | 1638.77 | 95.69 | 2.47E+06 | 3.77E+07 | – | – | Apparent pKa ([1]; Table 3G): 6.75; EE (%) [2, 6]: 96.32%; % EE [2, 7]: 93.0%; % EE [2, 8]: 93.1%; Novel lipid/MC3 expression ratio, 6 hr. time point, i.m. Luc (luciferase (Luc) mRNA; intramuscular): 4.69
3 | CCCCCCCCCOC(=O)CCCCCCCN(CCCO)CCCCCCCC(=O)OC(CCCCCCCC)CCCCCCCC [Compound 19, Heptadecan-9-yl 8-((3-hydroxypropyl)(8-(nonyloxy)-8-oxooctyl)amino) octanoate] | 6.78 | 285.56 | 1468.94 | 97.21 | 3.28E+06 | 2.96E+07 | – | – | IL-6 induction (IL-6, IP-10): highest; % EE [2, 3]: 93%; Novel lipid/MC3 expression ratio, 6 hr. time point, i.m. Luc (luciferase (Luc) mRNA; intramuscular): 3.68
4 | CCCCCCCCCCCOC(=O)CCCCCN(CCO)CCCCCCCC(=O)OC(CCCCCCCC)CCCCCCCC [Compound 25, Heptadecan-9-yl 8-((2-hydroxyethyl)(6-oxo-6-(undecyloxy)hexyl)amino)octanoate] | 6.68 | 233.45 | 1194.13 | 95.80 | 3.53E+06 | 9.96E+07 | 6.68 ± 0.29 | 95.8 ± 1.0 | EE (%) [2, 6]: 97.92%; % EE [2, 7]: 98.1%; % EE [2, 8]: 97.8%; EE [2, 10]: 87.01%; Novel lipid/MC3 expression ratio, 6 hr. time point, i.m. Luc (luciferase (Luc) mRNA; intramuscular): 1.46
5 | CCCCCCCCCOC(=O)CCCCCCCN(CCO)CCCCCCCC(=O)OCCCCCCCCC [Compound 138, Dinonyl 8,8′-((2-hydroxyethyl)azanediyl)dioctanoate] | 7.39 | 23.38 | 172.56 | 91.8 | 2.72E+05 | 1.19E+06 | 7.39 ± 0.07 | 91.8 ± 0.9 | surface pKa ([1]; LNP, Example 26): > 7
6 | CCCCCCCCCOC(=O)CCCCCCCN(CCO)CCCCCCCC(=O)OC(CCCCCCCC)CCCCCCCC [Compound 18, Heptadecan-9-yl 8-((2-hydroxyethyl)(8-(nonyloxy)-8-oxooctyl)amino)octanoate] | 6.56 | 78.76 | 139.92 | 95.9 | – | 8.84E+07 | 6.56 ± 0.13 | 97.5 ± 0.2 | pKa ([1]; Table 6): 6.56; IP-10 induction (IL-6, IP-10): lowest; EE (%) [2, 6]: 96.95%; % EE [2, 8]: 96.2%; EE [2, 11]: 97.34%; EE [2, 10]: 85.56%; EE ([2]; nanoparticle composition with mRNA encoding anti-HA antibody (Table 33)): 79.3%; % EE ([2]; nanoparticle of rat tolerability study (Table 43)): 91%; Fold increase in Luc expression relative to MC3, Intramuscular (0.01 mpk dose) (luciferase (Luc) mRNA; intramuscular, 0.01 mpk): 2.01
7 | CCCCCCCCCOC(=O)CCCN(CCO)CCCCCCCC(=O)OC(CCCCCCCC)CCCCCCCC [Compound 26, Heptadecan-9-yl 8-((2-hydroxyethyl)(4-(nonyloxy)-4-oxobutyl)amino) octanoate] | 6.64 | 273.56 | 2330.01 | 97.43 | 3.90E+06 | 6.13E+07 | 6.64 ± 0.14 | 97.4 ± 0.2 | pKa ([1]; Table 6): 6.64; IL-6 induction (IL-6, IP-10): highest; IP-10 induction (IL-6, IP-10): highest; EE [2, 10]: 95.60%; Fold increase in Luc expression relative to MC3, Intramuscular (0.001 mpk dose) (luciferase (Luc) mRNA; intramuscular): 0.56; Fold increase in Luc expression relative to MC3, Intramuscular (0.01 mpk dose) (luciferase (Luc) mRNA; intramuscular, 0.01 mpk): 1.39
8 | CCCCCCCCCN(CCCO)CCCCCCCC(=O)OC(CCCCCCCC)CCCCCCCC [Compound 7, Heptadecan-9-yl 8-((3-hydroxypropyl)(nonyl)amino)octanoate] | 6.75 | 116.35 | 4959.16 | 86.10 | 3.65E+06 | 7.48E+07 | – | – | App. pKa [1]: 6.74; IP-10 induction (IL-6, IP-10): highest
9 | CCCCCCCCCN(CCO)CCCCCCCC(=O)OC(CCCCCCCC)CCCCCCCC [Compound 3, Heptadecan-9-yl 8-((2-hydroxyethyl)(nonyl)amino)octanoate] | 6.72 | 282.88 | 2052.87 | 92.25 | 3.58E+06 | 4.95E+07 | – | – | pKa ([1]; Table 6): 6.72; IL-6 induction (IL-6, IP-10): highest; IP-10 induction (IL-6, IP-10): highest; Fold increase in Luc expression relative to MC3, Intramuscular (0.001 mpk dose) (luciferase (Luc) mRNA; intramuscular): 0.51; Fold increase in Luc expression relative to MC3, Intramuscular (0.01 mpk dose) (luciferase (Luc) mRNA; intramuscular, 0.01 mpk): 1.13
10 | CCCCCCCC/C=C\COC(=O)CCCCCN(CCO)CCCCCC(=O)OC/C=C\CCCCCCCC [Compound 140, Di((Z)-undec-2-en-1-yl) 6,6′-((2-hydroxyethyl)azanediyl)dihexanoate] | 7.71 | 282.82 | 187.83 | 89.2 | 2.03E+05 | 6.09E+05 | – | – | –
11 | CCCCCCCCCOC(=O)CCCCCCCN(CCO)CCCCCC(=O)OC(CCCCCCCC)CCCCCCCC [Compound 27, Nonyl 8-((6-(heptadecan-9-yloxy)-6-oxohexyl)(2-hydroxyethyl)amino) octanoate] | 6.78 | 161.07 | 345.56 | 94.27 | 2.55E+06 | 3.17E+07 | – | – | –
12 | CCCCCCCCC(CCCCCCCC)OC(=O)CCCCCCCN(CCO)CCCCCCCC(=O)OCC1CC1CCCCCC (stereo not drawn) [Compound 28, Heptadecan-9-yl 8-((8-((2-hexylcyclopropyl)methoxy)-8-oxooctyl)(2-hydroxyethyl)amino)octanoate] | 6.04 | 17.47 | 283.13 | 97.03 | 6.73E+05 | 5.56E+06 | – | – | IL-6 induction (IL-6, IP-10): lowest
13 | CCCCC/C=C\C/C=C\CCCCCCCCC(CCCCCCCC/C=C\C/C=C\CCCCC)OC(=O)CCCN(C)C [MC3, DLin-MC3-DMA, reference compound] | – | 124.42 | 504.90 | 97.3 | 2.76E+06 | 3.68E+07 | 6.30 ± 0.03 | 97.3 ± 1.9 | Apparent pKa [1, 6]: 6.35; EE (%) [2, 6]: 99.01%; % EE [2, 7]: 98.2%; % EE [2, 8]: 98.7%; % EE [2, 3]: 98%; EE [2, 11]: 97.22%; EE [2, 10]: 91.66%; AUC (p/s * h) (luciferase (Luc) mRNA; Table 3H, intramuscular, Luc): 5.88E+08 p/s * h; Lipid/MC3 AUC (luciferase (Luc) mRNA; Table 3H, intramuscular, Luc): 1; Total flux (p/s) 0.01 mpk Dose (luciferase (Luc) mRNA; Table 5B, 6 hours after intramuscular administration, 0.01 mpk): 3.23E+07 p/s
14 | CCCCCCCCC(CCCCCCCC)OC(=O)CCCCCCCN(CCO)CCCCCC [Compound 5, Heptadecan-9-yl 8-(hexyl(2-hydroxyethyl)amino)octanoate] | 6.84 | 94.07 | 487.16 | 77.07 | 9.84E+05 | 3.55E+06 | – | – | –
15 | CCCCCCCCCOC(=O)CCCCCCCN(CCO)CCCCCCCC(=O)N(CCCCCCCC)CCCCCCCC [Compound 144, Nonyl 8-((8-(dioctylamino)-8-oxooctyl)(2-hydroxyethyl)amino)octanoate] | 7.09 | 319.46 | 4220.55 | 90.3 | 2.72E+06 | 2.18E+07 | – | – | –
